The text below walks through data of ChEMBL document CHEMBL4145594, “Discovery of N-Alkyl Piperazine Side Chain Based CXCR4 Antagonists with Improved Drug-like Properties” (ACS Med Chem Lett, 2018).

A short description of data set [1]: Stability in human liver microsomes assessed as parent compound remaining at 0.5 uM after 10 mins by LC-MS analysis.
The target of data set [2] is T1, C-X-C chemokine receptor type 4 (Homo sapiens, UniProt P61073). Briefly: Agonist activity at CXCR4 in human CCRF-CEM cells measured for 90 secs by calcium flux assay. The data set is classed as functional, cell-based.
T1 sequence (P61073 whole entry): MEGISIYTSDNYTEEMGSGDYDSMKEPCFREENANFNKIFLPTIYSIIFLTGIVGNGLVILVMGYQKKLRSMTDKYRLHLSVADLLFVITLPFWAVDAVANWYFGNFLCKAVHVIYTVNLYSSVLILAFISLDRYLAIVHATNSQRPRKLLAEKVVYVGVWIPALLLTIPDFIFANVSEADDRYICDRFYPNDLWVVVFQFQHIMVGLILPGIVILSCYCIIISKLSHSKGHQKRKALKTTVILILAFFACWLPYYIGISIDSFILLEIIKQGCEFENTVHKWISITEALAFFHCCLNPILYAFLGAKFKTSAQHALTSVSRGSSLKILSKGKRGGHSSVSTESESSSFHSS
For data set [3], the target named is T1, C-X-C chemokine receptor type 4. Briefly: Antagonist activity at CXCR4 in human CCRF-CEM cells assessed as inhibition of […]-induced calcium flux pretreated for 25 mins followed by […] addition measured for 90 secs by calcium-dye based assay. The data set is classed as functional, cell-based.
For data set [4], the target named is Muscarinic acetylcholine receptor. Briefly: Antagonist activity at mAChR in human CCRF-CEM cells assessed as inhibition of acetylcholine-induced calcium flux pretreated for 25 mins followed by acetylcholine addition measured for 90 secs by calcium-dye based assay. It is filed as functional, cell-based.
Data set [5] is described as follows: Stability in rat liver microsomes assessed as parent compound remaining at 0.5 uM after 10 mins by LC-MS analysis.
Data set [6] in a line: Stability in mouse liver microsomes assessed as parent compound remaining at 0.5 uM after 10 mins by LC-MS analysis.
In a further data set the target is Cytochrome P450 3A4 (Homo sapiens, UniProt P08684). Briefly: Inhibition of CYP3A4 (unknown origin). It is filed as ADME.
Cytochrome P450 3A4, sequence (P08684 whole entry): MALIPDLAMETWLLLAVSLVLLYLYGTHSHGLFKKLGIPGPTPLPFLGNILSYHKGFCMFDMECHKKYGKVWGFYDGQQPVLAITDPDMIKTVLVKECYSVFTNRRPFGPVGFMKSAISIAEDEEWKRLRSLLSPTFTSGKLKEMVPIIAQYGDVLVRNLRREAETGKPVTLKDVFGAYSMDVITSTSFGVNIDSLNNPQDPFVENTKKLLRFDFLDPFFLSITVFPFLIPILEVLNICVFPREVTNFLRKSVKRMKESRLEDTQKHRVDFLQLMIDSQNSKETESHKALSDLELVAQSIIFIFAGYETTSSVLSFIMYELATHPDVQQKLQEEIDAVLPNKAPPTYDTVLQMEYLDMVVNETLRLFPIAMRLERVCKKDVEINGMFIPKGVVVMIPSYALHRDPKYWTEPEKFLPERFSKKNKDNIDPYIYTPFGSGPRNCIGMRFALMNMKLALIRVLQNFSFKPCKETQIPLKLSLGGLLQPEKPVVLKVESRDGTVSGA
In the next data set the target is Cytochrome P450 2D6 (Homo sapiens, UniProt P10635).
Cytochrome P450 2D6, sequence (P10635 whole entry): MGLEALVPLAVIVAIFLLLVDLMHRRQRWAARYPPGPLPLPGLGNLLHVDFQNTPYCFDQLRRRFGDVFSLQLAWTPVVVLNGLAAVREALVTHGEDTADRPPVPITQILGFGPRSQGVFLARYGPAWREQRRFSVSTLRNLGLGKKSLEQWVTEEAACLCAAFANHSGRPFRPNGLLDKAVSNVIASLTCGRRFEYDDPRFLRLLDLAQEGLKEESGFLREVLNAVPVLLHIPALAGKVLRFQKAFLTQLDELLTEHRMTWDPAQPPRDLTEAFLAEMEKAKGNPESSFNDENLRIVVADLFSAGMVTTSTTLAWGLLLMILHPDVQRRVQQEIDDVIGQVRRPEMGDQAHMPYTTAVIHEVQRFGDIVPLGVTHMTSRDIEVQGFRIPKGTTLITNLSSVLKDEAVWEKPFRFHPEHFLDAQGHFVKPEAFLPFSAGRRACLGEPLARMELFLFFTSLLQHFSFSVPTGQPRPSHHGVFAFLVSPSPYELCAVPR
A further data set in a line: in vitro. Conditions: PAMPA, pH 7.4.

Active and inactive are the calls of the source. The rule behind the calls is not given here.

Description for Cytochrome P450 2D6: Inhibition of recombinant human CYP2D6 expressed in insect cell microsomes using AMMC as substrate pretreated for 30 mins followed by NADPH addition measured after 45 mins by fluorescence assay
Description for in vitro: Permeability of the compound at pH 7.4 after 4 hrs by PAMPA

Regarding `CCN1CCN(CCCN(C[C@H]2Cc3ccccc3CN2)[C@H]2CCCc3cccnc32)CC1`, the fraction remaining at 10 min, 0.5 µM in data set [1] was found to be 59%; in [5] it was 1%; in data set [6], 19%. The outcome in data set [2] was inactive. In addition, the IC50 is 33 nM in [3], over 17 µM in data set [4], over 20 µM against Cytochrome P450 3A4 and over 20 µM against Cytochrome P450 2D6. The compound also registered a Papp at 4 h in “in vitro” of 31.7 ×10⁻⁶ cm/s.

For `c1ccc2c(c1)CN[C@@H](CN(CCC1CCNCC1)[C@H]1CCCc3cccnc31)C2`, the share remaining at 10 min, 0.5 µM in [1] came out at 66%; in data set [5], 17%; in data set [6], 32%. Moreover, in [2], the outcome was inactive. Moreover, the IC50 in data set [3] is 150 nM; in [4], over 14 µM; against Cytochrome P450 3A4 it was over 12 µM; at Cytochrome P450 2D6, 1.04 µM. The compound further registered a Papp at 4 h in the data set “in vitro” of 1.9 ×10⁻⁶ cm/s.

With `c1ccc2c(c1)CN[C@@H](CN(CC1CCNCC1)[C@H]1CCCc3cccnc31)C2`, the values for the share remaining at 10 min, 0.5 µM in data set [1], in [5] and in data set [6] were 86%, 65% and 13%, respectively. In data set [2], the outcome was inactive. The IC50 in [3] was 65 nM; in data set [4], over 14 µM; on Cytochrome P450 3A4, over 12 µM; against Cytochrome P450 2D6, 1.87 µM.

As for `CC(C)N1CCN(CCCN(C[C@H]2Cc3ccccc3CN2)[C@H]2CCCc3cccnc32)CC1`, the amount remaining at 10 min, 0.5 µM stood at 46% in data set [1], 4% in data set [5] and 58% in data set [6]. Moreover, the outcome in data set [2] was inactive. The IC50 was 62 nM in [3], over 17 µM in data set [4], over 20 µM against Cytochrome P450 3A4 and 6.65 µM at Cytochrome P450 2D6. The Papp at 4 h in “in vitro” amounted to 34.4 ×10⁻⁶ cm/s.

Consider `CN1CCN(CCCN(C[C@H]2Cc3ccccc3CN2)[C@H]2CCCc3cccnc32)CC1`, for which the share remaining at 10 min, 0.5 µM in data set [1] came to 72%; in data set [5] it was 10%; in data set [6], 53%. The outcome in data set [2] was inactive. Further, the IC50 is 125 nM in data set [3], 6.56 µM in data set [4], over 20 µM on Cytochrome P450 3A4 and 5.6 µM on Cytochrome P450 2D6. In addition, in “in vitro”, the Papp at 4 h stood at 36 ×10⁻⁶ cm/s.

`c1cnc(CN(CCCN2CCNCC2)[C@H]2CCCc3cccnc32)nc1`: the amount remaining at 10 min, 0.5 µM stood at 100% in data set [1], 68% in [5] and 78% in [6]. In [2], the outcome was inactive. The IC50 is over 17 µM in [4], over 20 µM at Cytochrome P450 3A4 and over 20 µM against Cytochrome P450 2D6. The compound also yielded a Papp at 4 h in the data set “in vitro” of 3.1 ×10⁻⁶ cm/s.

Regarding `c1ccc2c(c1)CN[C@@H](CN(CCCN1CCN(C3CC3)CC1)[C@H]1CCCc3cccnc31)C2`, the amount remaining at 10 min, 0.5 µM in data set [1] is 21%; in [5], 2%; in [6], 3%. Further, the outcome in data set [2] was inactive. Further, the IC50 in data set [3] is 50 nM; in data set [4], over 17 µM; against Cytochrome P450 3A4 it was over 20 µM; on Cytochrome P450 2D6 it was 6.04 µM. The Papp at 4 h in the data set “in vitro” turned out to be 50.5 ×10⁻⁶ cm/s.

With `c1ccc2c(c1)CN[C@@H](CN(CCCCN1CCNCC1)[C@H]1CCCc3cccnc31)C2`, the share remaining at 10 min, 0.5 µM in data set [1] was 82%; in data set [5], 15%; in data set [6], 96%. Further, the outcome in [2] was inactive. In addition, the IC50 in data set [3] was 66 nM; in [4] it was over 14 µM; against Cytochrome P450 3A4 it was over 12 µM; against Cytochrome P450 2D6 it was 1.43 µM. The compound further came in with a Papp at 4 h in “in vitro” of 1.4 ×10⁻⁶ cm/s.

Take `c1cnc2c(c1)CN[C@@H](CN(CCCN1CCNCC1)[C@H]1CCCc3cccnc31)C2`: the share remaining at 10 min, 0.5 µM was 79% in [1], 79% in [5] and 78% in [6]. Also, the result in data set [2] was inactive. The IC50 is 171 nM in [3], over 17 µM in data set [4], over 20 µM against Cytochrome P450 3A4 and over 20 µM against Cytochrome P450 2D6. The Papp at 4 h in “in vitro” was 0.9 ×10⁻⁶ cm/s.

As for `c1cnc2c(c1)CCC[C@@H]2N(CCCN1CCNCC1)Cc1cc2ccccc2cn1`, the results for the amount remaining at 10 min, 0.5 µM in [1], in [5] and in data set [6] were 66%, 59% and 74%, respectively. Also, the outcome in data set [2] was inactive. In addition, the IC50 in data set [3] was 17 nM; in data set [4], 3.2 µM; at Cytochrome P450 3A4 it was over 20 µM; on Cytochrome P450 2D6 it was 2.96 µM. The apparent permeability (Papp) at 4 h in the data set “in vitro” amounted to 24.3 ×10⁻⁶ cm/s.

With `c1cnc2c(c1)CCC[C@@H]2N(CCCN1CCNCC1)Cc1nc2ccccc2s1`, the share remaining at 10 min, 0.5 µM worked out at 50% in data set [1], 21% in data set [5] and 45% in data set [6]. For the same compound, the outcome in data set [2] was inactive. The figures for the IC50 (in data set [4]; against Cytochrome P450 3A4; against Cytochrome P450 2D6) were over 17 µM, 9.4 µM and over 20 µM, respectively.

On to `c1ccc2c(c1)CN[C@H](CN(CCCN1CCNCC1)[C@H]1CCCc3cccnc31)C2`, for which the amount remaining at 10 min, 0.5 µM in data set [1] was found to be 99%; in [5], 88%; in [6], 88%. Besides, in data set [2], the result was inactive. Further, the IC50 in data set [3] was 1150 nM; in data set [4] it was over 17 µM; at Cytochrome P450 3A4 it was over 20 µM; at Cytochrome P450 2D6, 1.4 µM. The compound further returned an apparent permeability coefficient (Papp) at 4 h in “in vitro” of 1.6 ×10⁻⁶ cm/s.

Consider `c1cnc2c(c1)CCC[C@@H]2N(CCCN1CCNCC1)Cc1nc2ccccc2[nH]1`, for which the share remaining at 10 min, 0.5 µM in data set [1] came out at 63%; in data set [5], 29%; in [6] it was 68%. Moreover, the result in [2] was inactive. For the same compound, the IC50 in data set [4] is over 17 µM; at Cytochrome P450 3A4 it was 12.7 µM; against Cytochrome P450 2D6, over 20 µM. In the data set “in vitro”, the Papp at 4 h was 14.6 ×10⁻⁶ cm/s.

In the case of `c1ccc2c(c1)CN[C@@H](CN(CC[C@@H]1CCCNC1)[C@H]1CCCc3cccnc31)C2`, the amount remaining at 10 min, 0.5 µM in data set [1] came to 75%; in data set [5], 28%; in [6], 23%. Moreover, the outcome in data set [2] was inactive. For the same compound, the IC50 was 161 nM in data set [3], over 14 µM in data set [4], over 12 µM at Cytochrome P450 3A4 and 0.03 µM against Cytochrome P450 2D6.

`NC(=O)N1CCN(CCCN(C[C@H]2Cc3ccccc3CN2)[C@H]2CCCc3cccnc32)CC1`: the amount remaining at 10 min, 0.5 µM in [1] was determined as 79%; in [5], 4%; in [6], 42%. The outcome in data set [2] was inactive. In addition, the IC50 in data set [3] is 959 nM; in data set [4], 4.98 µM; on Cytochrome P450 3A4, over 20 µM; on Cytochrome P450 2D6 it was 4.14 µM. The same compound showed a Papp at 4 h in the data set “in vitro” of 6.7 ×10⁻⁶ cm/s.

Consider `c1cnc2c(c1)CN[C@H](CN(CCCN1CCNCC1)[C@H]1CCCc3cccnc31)C2`, for which the share remaining at 10 min, 0.5 µM in data set [1] is 100%; in data set [5], 87%; in [6] it was 63%. Further, in data set [2], the outcome was inactive. Also, the IC50 in data set [3] was 2640 nM; in data set [4], over 17 µM; against Cytochrome P450 3A4, over 20 µM; on Cytochrome P450 2D6 it was over 20 µM.

Regarding `NCCCCN(Cc1nc2ccccc2[nH]1)[C@H]1CCCc2cccnc21` [MAVORIXAFOR], in data set [2], the result was inactive. For the same compound, the IC50 in data set [4] is over 17 µM.
